{"source": "patent US8318712B2", "about": "“Concentrated liquid thyroid hormone composition” (Intervet International B.V., priority 2006, dated 2012)", "key": {"[1]": {"conditions": "as reported by Sigma-Aldrich; cited from earlier work"}, "[2]": {"assay": "Stability of levothyroxine sodium in aqueous HPBCD solutions with phosphate and carbonate buffers, sealed container", "format": "physicochemical", "conditions": "experiments of Table 9", "description": "Applicants investigated the stability of levothyroxine sodium in aqueous HPBCD solutions with phosphate and carbonate buffers in a sealed container."}, "[3]": {"assay": "Solubility in aqueous HPBCD solution, effect of complexing agent and copolymers", "format": "physicochemical", "method": "In an aqueous solution of 30% (w/w) HPBCD (Kleptose HPB, Roquette, France), 1000 μg/ml of levothyroxine sodium was dissolved. Applicants have observed that similar levothyroxine sodium solubilities may be achieved at lesser concentrations of HPBCD by adding a copolymer(s), such as, for example, sodium carboxymethyl cellulose (“CMC”), hydroxypropylmethylcellulose 4000 (“HPMC”), and/or povidone 12PF.\n0.5% w/w of CCM and 15% (w/w) of HPBCD,\n0.5% w/w of HPMC and 20% (w/w) of HPBCD, or\n2% w/w of Povidone 12PF and 20% (w/w) of HPBCD."}, "[4]": {"assay": "Solubility of levothyroxine sodium, effect of pH", "format": "physicochemical", "description": "To have an acceptable biological pH and to improve the solubility of levothyroxine, the pH preferably is at least about 8, or at least about 9."}, "[5]": {"assay": "Solubility in water, effect of levothyroxine sodium particle size", "format": "physicochemical", "conditions": "observed after 24 hours", "method": "The solubilities of batches of levothyroxine sodium micronized (D99<13 μm) and not micronized (D99<125 μm) were investigated. Preparations with several amounts of active ingredient in a fixed volume of water were observed after 24 hours. In both cases, less than 100 μg of levothyroxine sodium was soluble per ml of water."}, "[6]": {"assay": "Stability of levothyroxine sodium in aqueous HPBCD solution with or without stabilizers", "format": "physicochemical", "conditions": "experiments of Tables 2-4", "description": "The stability of levothyroxine sodium in an aqueous solution of HPBCD with or without stabilization was investigated."}}, "data": [{"smiles": "NCC(=O)O", "note": "[Glycine]", "values": [{"measurement": "effective pH range", "setting": "[1]", "result": "8.8-10.6"}, {"measurement": "pKa2", "setting": "[1]", "result": 9.78}]}, {"smiles": "O=S(=O)(O)CC(O)CNC1CCCCC1", "note": "(stereo not shown) [CAPSO, 3-[cyclohexylamino]-2-hydroxy-1-propanesulphonic acid]", "values": [{"measurement": "effective pH range", "setting": "[1]", "result": "8.9-10.3"}]}, {"smiles": "CN", "note": "[Methylamine]", "values": [{"measurement": "effective pH range", "setting": "[1]", "result": "9.5-11.5"}]}, {"smiles": "CC(C)(N)CO", "note": "[AMP, 2-amino-2-methyl-1-propanol]", "values": [{"measurement": "effective pH range", "setting": "[1]", "result": "8.7-10.4"}]}, {"smiles": "O=S(=O)(O)CCCCNC1CCCCC1", "note": "[CABS, 4-[cyclohexylamino]-1-butanesulfonic acid]", "values": [{"measurement": "effective pH range", "setting": "[1]", "result": "10.0-11.4"}]}, {"smiles": "O=S(=O)(O)CCCNC1CCCCC1", "note": "[CAPS, N-cyclohexyl-3-aminopropanesulfonic acid]", "values": [{"measurement": "effective pH range", "setting": "[1]", "result": "9.7-11.1"}]}, {"smiles": "N[C@@H](Cc1cc(I)c(Oc2cc(I)c(O)c(I)c2)c(I)c1)C(=O)[O-].[Na+]", "note": "[levothyroxine sodium]", "values": [{"measurement": "compatibility with HPBCD in aqueous solution", "setting": "[2]", "result": "did not exhibit incompatibility"}, {"measurement": "levothyroxine sodium dissolved", "setting": "[3]; aqueous solution of 30% (w/w) HPBCD", "result": 1000, "unit": "µg/mL"}, {"measurement": "levothyroxine sodium dissolved", "setting": "[3]; aqueous solution, 0.5% w/w of CCM and 15% (w/w) of HPBCD", "result": 1000, "unit": "µg/mL"}, {"measurement": "levothyroxine sodium dissolved", "setting": "[3]; aqueous solution, 0.5% w/w of HPMC and 20% (w/w) of HPBCD", "result": 1000, "unit": "µg/mL"}, {"measurement": "levothyroxine sodium dissolved", "setting": "[3]; aqueous solution, 2% w/w of Povidone 12PF and 20% (w/w) of HPBCD", "result": 1000, "unit": "µg/mL"}, {"measurement": "solubility", "setting": "[4]; pH 7.3", "result": 28, "unit": "µg/mL"}, {"measurement": "solubility relative to pH 7.3", "setting": "[4]; pH 9.4", "result": 7, "unit": "times greater"}, {"measurement": "solubility relative to pH 7.3", "setting": "[4]; pH 10.45", "result": 11, "unit": "times greater"}, {"measurement": "levothyroxine sodium soluble per ml of water", "setting": "[5]; micronized (D99<13 μm)", "result": "less than 100 μg per ml"}, {"measurement": "levothyroxine sodium soluble per ml of water", "setting": "[5]; not micronized (D99<125 μm)", "result": "less than 100 μg per ml"}, {"measurement": "compatibility with HPBCD in aqueous solution", "setting": "[6]", "result": "did not exhibit incompatibility"}]}, {"smiles": "NCCO", "note": "[ethanolamine]", "values": [{"measurement": "effective pH range", "setting": "[1]", "result": "6.0-12.0"}]}]}
